The supplement of paper PMC11821682

Experiments:
Danio rerio embryo [1] = experiment: LEL embryonic photomotor response 24 hpf
Danio rerio embryo [2] = experiment: BMC10 mortality 24-120 hpf; higher = less toxic
Experimental: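 ZBEscreen: dechorionated Tropical 5D zebrafish embryos were exposed from 4 hpf in 96-well plates (1% DMSO, 28 °C). All compounds were first tested at 100 µM; hits were retested at 0.005-100 µM. Morphology and mortality were scored at 120 hpf and fitted as BMC10 (3-parameter log-logistic, extra risk). The embryonic photomotor response at 24 hpf and the larval photomotor response at 120 hpf are given as lowest effect levels (K-S test, p<0.01). NA = not significant up to 100 µM; NT = not tested.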

Danio rerio embryo [3] = experiment: LEL larval photomotor response dark phase 120 hpf
Danio rerio embryo [4] = experiment: BMC10 any morphological effect or mortality at 120 hpf; higher = less toxic
HL-60 = experiment: Cell Health Index (toxicity pseudo-probability over dose series) (index 0-1); higher = more cytotoxic / cell stress;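 also: HL-60 cells exposed 4 h at 37 °C to ten threefold dilutions spanning 5 nM to 100 µM, multiparametric flow cytometry features scored by machine-learning classification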

SMILES	LEL embryonic photomotor response 24 hpf (Danio rerio embryo [1]) [µM]	BMC10 mortality 24-120 hpf (Danio rerio embryo [2]) [µM]	LEL larval photomotor response dark phase 120 hpf (Danio rerio embryo [3]) [µM]	BMC10 any morphological effect or mortality (Danio rerio embryo [4]) [µM]	Cell Health Index (HL-60)
O=C1C=CC2=CC=C(OC)C(C/C=C(C)\C)=C2O1 [Osthole]	3.7	8.94	> 100	3.1	0.355
Cc1ccc2c(c1)c1c3n2CCNC3CCC1 (stereo not given) [Pirlindole]	33.3	12	> 100	5.42	0.298
CCOC(=O)c1ccc(OCCC2CCN(c3ccc(C)nn3)CC2)cc1 [Pirodavir]	3.7	1.43	> 100	2.02	0.528
Cc1cc(CCCOc2c(C)cc(-c3noc(C(F)(F)F)n3)cc2C)on1 [Pleconaril]	0.41	6.8	> 100	1.15	0.48
CCc1nc(N)nc(N)c1-c1ccc(Cl)cc1 [Pyrimethamine]	100	30	> 100	3.56	0.324
COc1ccc2nc3cc(Cl)ccc3c(Nc3cc(CN4CCCC4)c(O)c(CN4CCCC4)c3)c2n1.O=P(O)(O)O.O=P(O)(O)O.O=P(O)(O)O.O=P(O)(O)O [Pyronaridine]	3.7	3.65	> 100	1.18	0.929
COc1ccccc1NC(=O)c1ccccc1Sc1ccc([N+](=O)[O-])cc1 [RN-18]	11.1	11.8	> 100	10	0.491
O=C(Nc1cc(C(F)(F)F)ccc1N1CCCCC1)c1ccncc1 [SRPIN340]	33.3	10.3	> 100	0.68	0.799
C[C@H]1O[C@@H](O[C@H]2CC[C@@]3(C)[C@@H](CC[C@]4(C)[C@@H]3C=C[C@]35OC[C@@]6(CCC(C)(C)C[C@H]63)[C@@H](O)C[C@]54C)[C@]2(C)CO)[C@H](O)[C@@H](O[C@@H]2O[C@H](CO)[C@@H](O)[C@H](O)[C@H]2O)[C@H]1O [Saikosaponin A]	> 100	1.46	> 100	> 100	0.959
CN1CCN(CCOc2cc(OC3CCOCC3)c3c(Nc4c(Cl)ccc5c4OCO5)ncnc3c2)CC1 [Saracatinib]	100	45.7	> 100	15.5	0.695
COc1cc2c(c(OC)c1OC)-c1c(cc(OC)c(OC)c1OC)C[C@H](C)[C@H](C)C2 [Schisandrin A]	0.015	3.4	> 100	3.78	0.661
OC1=C2C(C(C=C([C@@](O)([H])C/C=C(C)\C)C2=O)=O)=C(O)C=C1 [Shikonin]	3.7	1.73	> 100	1.08	0.884
COc1ccc2c(O[C@@H]3C[C@H]4C(=O)N[C@]5(C(=O)NS(=O)(=O)C6CC6)C[C@H]5/C=C\CCCCN(C)C(=O)[C@@H]4C3)cc(-c3nc(C(C)C)cs3)nc2c1C.[Na] [Simeprevir]	> 100	5.01	> 100	3.6	0.903
Fc1ccc(CNc2ncnc3ccc(F)cc23)cc1 [Spautin-1]	3.7	1.17	1.23	0.511	0.772
COc1ccc(CC(C)C(C)Cc2ccc(OC)c(OC)c2)cc1OC (stereo not given) [Terameprocol]	3.7	24	> 100	3.12	0.506
CCN(CC)CCOc1ccc2c(c1)C(=O)c1cc(OCCN(CC)CC)ccc1-2.Cl.Cl [Tilorone]	> 100	9.79	> 100	3.55	0.506
O=C(Nc1ncc([N+](=O)[O-])s1)c1ccccc1O [Tizoxanide]	> 100	44.2	> 100	29.5	0.736
CN1CCN(CCCN2c3ccccc3Sc3ccc(C(F)(F)F)cc32)CC1.Cl.Cl [Trifluoperazine]	11.1	4.13	> 100	3.55	0.898
N#CC(=C(/N)Sc1ccccc1N)/C(C#N)=C(\N)Sc1ccccc1N [U0126]	33.3	11.5	> 100	4.02	0.558
S=C(N(C1=CC=CC=C1)C(/C2=C\C3=CC=C(C4=CC=CC=C4[N+]([O-])=O)O3)=O)N(C5=CC=CC=C5)C2=O [UCF 101]	> 100	4.93	> 100	3.23	0.876
CCOC(=O)c1c(CSc2ccccc2)n(C)c2cc(Br)c(O)c(CN(C)C)c12.Cl [Umifenovir]	3.7	6.28	> 100	3.37	0.791
C[C@H]1[C@H](C)CC[C@]2(C(=O)O)CC[C@]3(C)C(=CC[C@@H]4[C@@]5(C)CC[C@H](O)C(C)(C)[C@@H]5CC[C@]43C)[C@H]12 [Ursolic acid]	> 100	3.95	> 100	0.748	0.434
CC(=O)c1c(O)c(C)c(O)c2c1OC1=CC(=O)C(C(C)=O)C(=O)C12C (stereo not given) [Usnic acid]	33.3	1.77	> 100	1.01	0.406
C=CC(=O)N1CC/C(=C\c2ccc(F)c([N+](=O)[O-])c2)C(=O)/C(=C/c2ccc(F)c([N+](=O)[O-])c2)C1 [VLX1570]	> 100	1.38	> 100	1.26	0.884
C/C1=C/CC/C(C)=C/CC(C)(C)/C=C/C1=O [Zerumbone]	11.1	9.91	> 100	2.66	0.238
